Results taken from patent US20100160295A1, “TREATMENT OF RESTLESS LEG SYNDROME AND SLEEP DISORDERS” (SYNOSIA THERAPEUTICS, priority 2008, published 2010).

Experiments:
Format in all cases: in vivo, human
[1] = test system: moderate to severe idiopathic RLS subjects; assay: Restless Legs Scale - 6 items (RLS-6)
Protocol: (§1) The study multi-centre, randomized, double-blind, parallel-groups, placebo-controlled study with 2 treatment arms, oral HPPD inhibitor (2-(2-nitro-4-trifluoromethylbenzoyl)-1,3-cyclohexanedione) and placebo. Subjects were randomized to either treatment with an HPPD inhibitor or placebo in a 2:1 ratio. The subjects were dosed with 4 mg on day 1, and 2 mg/day on days 2-14. The total duration of treatment with study drug for each subject was 14 consecutive days ending at the day of the final sleep lab assessment (Day 14), with a follow-up examination 29 days after Baseline.
(§2) The objective of this exploratory study was to show proof-of-concept of therapy with an exemplary HPPD inhibitor in moderate to severe idiopathic RLS subjects.
(§3) Efficacy parameters were changes between Baseline and end of treatment in objective measures of Periodic Limb Movements (PLM) and sleep efficiency and in investigator evaluations of severity of RLS symptoms as well as in subject's report on severity of RLS symptoms, sleep disturbances and depressive feelings. […]

[2] = test system: moderate to severe idiopathic RLS subjects; assay: Patients' Global Impression (PGI) scale Item 1 (efficacy)
Protocol: as §1, §2, §3

[3] = test system: moderate to severe idiopathic RLS subjects; assay: Beck Depression Inventory (BDI)
Protocol: as §1, §2, §3

[4] = test system: moderate to severe idiopathic RLS subjects; assay: Patient diary of RLS symptoms
Protocol: as §1, §2
(§4) Efficacy parameters were changes between Baseline and end of treatment in objective measures of Periodic Limb Movements (PLM) and sleep efficiency and in investigator evaluations of severity of RLS symptoms as well as in subject's report on severity of RLS symptoms, sleep disturbances and depressive feelings. Parameters measured included: • Periodic Limb Movement (PLM) Index, defined as the number of PLM events occurring during time-in-bed (PLMI/h TIB) • Periodic Limb Movements during Sleep Index, defined as the number of PLMs per hour of total sleep time (PLMSI/h TST) • PLM arousal index, defined as the number of PLM with arousals per hour of total sleep time (PLMSAI/h TST) • Periodic Limb Movements during wakefulness index, defined as the number of PLMs per hour occurring during wakefulness within time-in-bed (PLMWI/h TIB) • Sleep Efficiency (SE) expressed as the percentage total sleep time (TST) of total time in bed (TIB) • Total Sleep Time (TST) • Total number of arousals per TST • Sleep latency • Restless Legs Scale—6 items (RLS-6) (Kohnen et al, 2004) • IRLS total score change from start of treatment to end • Time to requiring rescue medication (defined as time to dropout due to the need of rescue medication for intolerable RLS symptoms) • Physicians' Global Impression, rated by the Clinical Global Impressions Scale (CGI): severity, change and treatment effect • CGI responders defined as the proportion of subjects who improved “much” or “very much” on CGI item “change”. • Patients' Global Impression (PGI) scale Item 1 (efficacy) • Medical Outcomes Study (MOS) Sleep Scale • Beck Depression Inventory (BDI) • In addition, a patient diary was to be completed between days 8 and 15 • HPPD inhibitor plasma concentrations at Baseline, end of treatment and follow-up • Tyrosine plasma concentration at Baseline, end of treatment and follow-up.

[5] = test system: moderate to severe idiopathic RLS subjects; assay: IRLS scale, placebo-controlled study in RLS subjects
Protocol: as §1, §2, §4

## O=C1CCCC(=O)C1C(=O)c1ccc(C(F)(F)F)cc1[N+](=O)[O-] [HPPD Inhibitor, 2-(2-nitro-4-trifluoromethylbenzoyl)-1,3-cyclohexanedione]
[1]; Baseline to EoT
  RLS-6, all subscales: median (mean) differences between Baseline and EoT vs placebo: more benefit than those treated with placebo
[1]; M-ITT, 95%-CI: −4.52, 0.97, p=0.1910 two-sided from ANCOVA
  RLS-6 RLS symptoms during the night: difference drug-placebo, LS mean: −1.77
[1]; M-ITT, 95%-CI: −5.24, −0.01, p=0.0494 two-sided from ANCOVA
  RLS-6 RLS symptoms when falling asleep: difference drug-placebo, LS mean: −2.62
[2]; placebo 2
  PGI: subjects who assessed their therapy as efficacious, number: 7 subjects
[2]; placebo 28.6%
  PGI: subjects who assessed their therapy as efficacious, percentage: 50.0%
[3]
  depressive symptoms, mean differences between Baseline and EoT vs placebo: larger reduction of depressive symptoms
[4]; M-ITT, 95%-CI: −2.52, −0.04, p=0.0437 two-sided from ANCOVA
  patient diary, RLS symptoms during the day when active: difference drug-placebo, LS mean: −1.28
[4]; M-ITT, 95%-CI: −4.87, −0.27, p=0.0304 two-sided from ANCOVA
  patient diary, RLS symptoms during the day: difference drug-placebo, LS mean: −2.57
[4]; M-ITT, 95%-CI: −5.15, −0.13, p=0.0402 two-sided from ANCOVA
  patient diary, RLS symptoms when falling asleep: difference drug-placebo, LS mean: −2.64
[4]; vs placebo
  patient diary, improvement of RLS symptoms during the night and during the day at rest, or during inactivity: Trends were found
[5]; Baseline to EoT, M-ITT, 95%-CI: −9.75, 2.84, p=0.2636
  IRLS severity score: difference drug-placebo, LS mean: −3.46
[5]; Baseline to EoT, not seen for IRLS impact score
  IRLS total score, difference vs placebo: numerical differences between Baseline and EoT favouring
[5]; EoT, M-ITT, placebo 2
  subjects reporting only mild or moderate RLS symptoms (IRLS scale), number: 9 subjects
[5]; EoT, M-ITT, placebo 28.6%
  subjects reporting only mild or moderate RLS symptoms (IRLS scale), percentage: 64.3%
